Reference: patent US4134792A, “Specific binding assay with an enzyme modulator as a labeling substance” (Miles Laboratories, Inc., priority 1976, dated 1979)

Experiments:
[1] = target: uricase; settings: approximation; competitive inhibitor; read-out: inhibitor constant (Ki); cited from earlier work
[2] = system: NAD-isocitric dehydrogenase; set-up: key: inhibitory or negative effectors are indicated by (-); stimulatory or positive effectors are indicated by (+); settings: yeast; cited from earlier work
[3] = system: phosphorylase b; set-up: key: inhibitory or negative effectors are indicated by (-); stimulatory or positive effectors are indicated by (+); settings: rabbit muscle; cited from earlier work
[4] = system: fructose-1,6-diphosphatase; set-up: key: inhibitory or negative effectors are indicated by (-); stimulatory or positive effectors are indicated by (+); settings: frog muscle and rat liver; cited from earlier work
[5] = system: L-threonine deaminase; set-up: key: inhibitory or negative effectors are indicated by (-); stimulatory or positive effectors are indicated by (+); settings: C. tetanomorphum; cited from earlier work
[6] = system: glutamate dehydrogenase; set-up: key: inhibitory or negative effectors are indicated by (-); stimulatory or positive effectors are indicated by (+); settings: beef liver; cited from earlier work
[7] = system: aspartate transcarbamylase; set-up: key: inhibitory or negative effectors are indicated by (-); stimulatory or positive effectors are indicated by (+); settings: E. coli; cited from earlier work
[8] = system: phosphofructokinase; settings: guinea pig heart; cited from earlier work
[9] = system: carbonic anhydrase; experiment: Esterase activities of carbonic anhydrase as a function of acetazolamide concentration (Example 2); format: biochemical, human; settings: for Hydrolysis Rate: pH 7.4, enzyme 0.013 IU
[10] = system: carbonic anhydrase; experiment: Competitive binding assay for dinitrophenyl (DNP) derivatives; carbonic anhydrase esterase readout (Example 5); format: biochemical, human; settings: for effect on the carbonic anhydrase reaction (in words): Table 4; for effect of antibody to DNP on inhibition (in words): presence of antibody to DNP
Method: (§1) Further dilutions were with water.
as §1
(4) Antibody to Dinitrophenyl (DNP) Reagent - Antisera raised against DNP was chromatographed at 4° C. on a 5 × 70 cm column of Sephadex G-200 (Pharmacia AB, Uppsala, Sweden) with 0.1 M Tris-HCl buffer, pH 8.2, containing 1 M sodium chloride.

[11] = system: biosynthetic L-threonine deaminase; set-up: key: inhibitory or negative effectors are indicated by (-); stimulatory or positive effectors are indicated by (+); settings: E. coli K12 and yeast; cited from earlier work
[12] = system: homoserine dehydrogenase; set-up: key: inhibitory or negative effectors are indicated by (-); stimulatory or positive effectors are indicated by (+); settings: R. rubrum; cited from earlier work
[13] = system: lysine aspartokinase; set-up: key: inhibitory or negative effectors are indicated by (-); stimulatory or positive effectors are indicated by (+); settings: E. coli; cited from earlier work
[14] = system: acetolactate synthetase; set-up: key: inhibitory or negative effectors are indicated by (-); stimulatory or positive effectors are indicated by (+); settings: E. coli; cited from earlier work
[15] = system: acetylcholinesterase; settings: cited from earlier work; for inhibition of acetylcholinesterase (in words): effective analogs of listed inhibitors
[16] = system: carbonic anhydrase; experiment: Direct binding assay for avidin; competitive binding assay for biotin; carbonic anhydrase esterase readout (Example 4); format: biochemical, human
Source text: as §1
The results of reaction mixtures 2 through 9 are presented in graphical form in FIG. 2 of the drawing.

[17] = system: nicotinamide adenine dinucleotide (NAD)-isocitric dehydrogenase; set-up: key: inhibitory or negative effectors are indicated by (-); stimulatory or positive effectors are indicated by (+); settings: N. crassa; cited from earlier work
[18] = system: UDP-N-acetyl-glucosamine-2-epimerase; set-up: key: inhibitory or negative effectors are indicated by (-); stimulatory or positive effectors are indicated by (+); settings: rat liver; cited from earlier work
[19] = system: deoxythymidine kinase; set-up: key: inhibitory or negative effectors are indicated by (-); stimulatory or positive effectors are indicated by (+); settings: E. coli; cited from earlier work
[20] = system: deoxycytidylate aminohydrolase; set-up: key: inhibitory or negative effectors are indicated by (-); stimulatory or positive effectors are indicated by (+); settings: ass spleen; cited from earlier work

## Clc1nc(Cl)c2[nH]c(Cl)nc2n1 [2,6,8-trichloropurine, 2,6,8-Trichloropurine]
[1]
  Ki: ~1000 nM

## Nc1ncnc2c1ncn2[C@@H]1O[C@H](COP(=O)(O)O)[C@@H](O)[C@H]1O [5'-AMP]
[2]
  allosteric effector: inhibitory (-) or stimulatory (+): +
[3]
  allosteric effector: inhibitory (-) or stimulatory (+): +
[4]
  allosteric effector: inhibitory (-) or stimulatory (+): -

## Nc1ncnc2c1ncn2[C@@H]1O[C@H](COP(=O)(O)OP(=O)(O)O)[C@@H](O)[C@H]1O [ADP, addenosine diphosphate]
[5]
  allosteric effector: inhibitory (-) or stimulatory (+): +
[6]
  allosteric effector: inhibitory (-) or stimulatory (+): +

## Nc1ncnc2c1ncn2[C@@H]1O[C@H](COP(=O)(O)OP(=O)(O)OP(=O)(O)O)[C@@H](O)[C@H]1O [ATP, adenosine triphosphate]
[7]
  allosteric effector: inhibitory (-) or stimulatory (+): +
[8]
  allosteric effector: inhibitory (-) or stimulatory (+): -
[6]
  allosteric effector: inhibitory (-) or stimulatory (+): -
[3]
  allosteric effector: inhibitory (-) or stimulatory (+): -

## CC(=O)Nc1nnc(S(N)(=O)=O)s1 [Acetazolamide, 2-Acetylamino-1,3,4-thiadiazole-5-sulfonamide]
[9]; Table 1
  inhibition of carbonic anhydrase (in words): inhibited the enzyme carbonic anhydrase
[9]; acetazolamide 0.144 μM with avidin 0.105 units/ml
  Hydrolysis Rate: 0.089 ΔOD348 /min/ml
[9]; acetazolamide 0.144 μM, no avidin
  Hydrolysis Rate: 0.088 ΔOD348 /min/ml
[9]; acetazolamide 0.288 μM, no avidin
  Hydrolysis Rate: 0.047 ΔOD348 /min/ml
[10]
  effect on the carbonic anhydrase reaction (in words): inhibited the carbonic anhydrase reaction
  effect of antibody to DNP on inhibition (in words): substantially unaffected by the presence of antibody to DNP
[10]; acetazolamide 0.216 μM with antibody to DNP 100 .infin.l/ml, mixture 3
  Rate of Hydrolysis: 0.091 Increase in Absorbance per min at 348 nm
[10]; acetazolamide 0.216 μM, no antibody, mixture 5
  Rate of Hydrolysis: 0.088 Increase in Absorbance per min at 348 nm

## Nc1ccn([C@@H]2O[C@H](COP(=O)(O)OP(=O)(O)OP(=O)(O)O)[C@@H](O)[C@H]2O)c(=O)n1 [CTP, cytosine triphosphate]
[7]
  allosteric effector: inhibitory (-) or stimulatory (+): -

## NS(=O)(=O)c1nnc(NC(=O)CCCCCNc2ccc([N+](=O)[O-])cc2[N+](=O)[O-])s1 [DNP-Modulator Conjugate, 6-(2,4-Dinitroanilino)-N-(5-sulfonamide-1,3,4-thiadiazo-2-yl) caproamide]
[10]; DNP-modulator conjugate 0.278 μM with antibody to DNP 100 .infin.l/ml, mixture 2
  Rate of Hydrolysis: 0.108 Increase in Absorbance per min at 348 nm
[10]; DNP-modulator conjugate 0.278 μM, N-DNP-6-aminocaproate 1.8 μM, antibody to DNP 100 .infin.l/ml, mixture 7
  Rate of Hydrolysis: 0.098 Increase in Absorbance per min at 348 nm
[10]; DNP-modulator conjugate 0.278 μM, no antibody, mixture 4
  Rate of Hydrolysis: 0.074 Increase in Absorbance per min at 348 nm
[10]
  effect on the carbonic anhydrase reaction (in words): inhibited the carbonic anhydrase reaction
  effect of antibody to DNP on inhibition (in words): degree of inhibition being decreased by the presence of antibody to DNP

## Nc1nc2c(ncn2[C@@H]2O[C@H](COP(=O)(O)OP(=O)(O)OP(=O)(O)O)[C@@H](O)[C@H]2O)c(=O)[nH]1 [GTP, guanosine triphosphate]
[6]
  allosteric effector: inhibitory (-) or stimulatory (+): -

## CC[C@H](C)[C@H](N)C(=O)O [L-isoleucine]
[11]
  allosteric effector: inhibitory (-) or stimulatory (+): -
[12]
  allosteric effector: inhibitory (-) or stimulatory (+): +

## NCCCC[C@H](N)C(=O)O [L-lysine]
[13]
  allosteric effector: inhibitory (-) or stimulatory (+): -

## CSCC[C@H](N)C(=O)O [L-methionine]
[12]
  allosteric effector: inhibitory (-) or stimulatory (+): +

## CC(C)[C@H](N)C(=O)O [L-valine]
[11]
  allosteric effector: inhibitory (-) or stimulatory (+): +
[14]
  allosteric effector: inhibitory (-) or stimulatory (+): +

## O=C(O)CCCCCNc1ccc([N+](=O)[O-])cc1[N+](=O)[O-] [N-DNP-6-aminocaproate]
[10]; N-DNP-6-aminocaproate 1.8 μM alone, no antibody, mixture 6
  Rate of Hydrolysis: 0.154 Increase in Absorbance per min at 348 nm
[10]
  effect on the carbonic anhydrase reaction (in words): no substantial effect on the carbonic anhydrase reaction
[10]; mixtures 2 and 7, antibody to DNP present
  effect of DNP derivative on inhibition by DNP-modulator conjugate (in words): increased inhibition of the carbonic anhydrase reaction by the DNP-modulator conjugate

## CN(C(=O)Oc1cccc([N+](C)(C)C)c1)c1ccc(N)cc1 [N-methyl-N-(p-aminophenyl) carbamate ester of m-(trimethylamino) phenol]
[15]
  inhibition of acetylcholinesterase (in words): inhibited

## O=C(O)CCCC[C@@H]1SC[C@@H]2NC(=O)N[C@@H]21 [biotin]
[16]; mixtures 8, 10 and 11
  relation of rate of hydrolysis to biotin (in words): inversely related to the amount present

## O=C(O)CC(O)(CC(=O)O)C(=O)O [citrate]
[17]
  allosteric effector: inhibitory (-) or stimulatory (+): +

## CC(=O)N[C@H]1[C@H]([C@H](O)[C@H](O)CO)OC(OP(=O)(O)OC[C@H]2O[C@@H](n3ccc(N)nc3=O)[C@H](O)[C@@H]2O)(C(=O)O)C[C@@H]1O (stereo partly drawn) [cytosine monophosphate (CMP)-N-acetyl-neuraminic acid]
[18]
  allosteric effector: inhibitory (-) or stimulatory (+): -

## Nc1ccn([C@H]2C[C@H](O)[C@@H](COP(=O)(O)OP(=O)(O)O)O2)c(=O)n1 [dCDP, deoxycytosine diphosphate]
[19]
  allosteric effector: inhibitory (-) or stimulatory (+): +

## Nc1ccn([C@H]2C[C@H](O)[C@@H](COP(=O)(O)OP(=O)(O)OP(=O)(O)O)O2)c(=O)n1 [dCTP, deoxycytosine triphosphate]
[20]
  allosteric effector: inhibitory (-) or stimulatory (+): +

## Cc1cn([C@H]2C[C@H](O)[C@@H](COP(=O)(O)OP(=O)(O)OP(=O)(O)O)O2)c(=O)[nH]c1=O [dTTP, deoxythymidine triphosphate]
[20]
  allosteric effector: inhibitory (-) or stimulatory (+): -
[19]
  allosteric effector: inhibitory (-) or stimulatory (+): -

## CC(C)C[C@H](N)C(=O)O [leucine]
[6]
  allosteric effector: inhibitory (-) or stimulatory (+): +

## CSCC[C@H](N)C(=O)O [methionine]
[6]
  allosteric effector: inhibitory (-) or stimulatory (+): +

## C[N+](C)(C)c1ccc(N)cc1 [p-aminophenyl trimethylammonium ion]
[15]
  inhibition of acetylcholinesterase (in words): inhibited

## C[N+](C)(C)c1ccccc1 [phenyl trimethylammonium ion]
[15]; approximation, competitive inhibitor, read-out: inhibitor constant (Ki)
  Ki: ~1000 nM

## NC(=O)C1=CN([C@@H]2O[C@H](COP(=O)(O)OP(=O)(O)OC[C@H]3O[C@@H](n4cnc5c(N)ncnc54)[C@H](O)[C@@H]3O)[C@@H](O)[C@H]2O)C=CC1 [reduced NAD]
[6]
  allosteric effector: inhibitory (-) or stimulatory (+): -

## N[C@@H](Cc1cc(I)c(Oc2cc(I)c(O)c(I)c2)c(I)c1)C(=O)O [thyroxine]
[6]
  allosteric effector: inhibitory (-) or stimulatory (+): -

## Avidin: Lyophilized avidin (Sigma Chemical Co., St. Louis, Mo.)
[9]; Table 1
  effect of avidin on inhibition by acetazolamide (in words): no significant effect on such inhibition
[9]; avidin 0.105 units/ml, acetazolamide 0.000 μM
  Hydrolysis Rate: 0.106 ΔOD348 /min/ml
[16]; constant level of biotin-modulator conjugate, mixtures 2-9
  relation of rate of enzymatic hydrolysis to avidin (in words): directly related to the amount of avidin present
